Measured values as given in US9102648B1, “Bioavailable diacylhydrazine ligands for modulating the expression of exogenous genes via an ecdysone receptor complex” (Intrexon Corporation, priority 2003, dated 2015).
Where two headings read alike, the source gives them in different places.

Legend:
[1] = Partition coefficient Log (D), 1-octanol / pH 7.4 buffer; assay type: physicochemical; details: water-saturated 1-octanol / pH 7.4 buffer, room temperature
Description: The partition coefficient, Log (D), between water-saturated 1-octanol and pH 7.4 buffer was determined for the test compounds. The buffer was prepared as described in section 2. A 12 μl aliquot of a 10 mM stock solution in DMSO was introduced to a vial containing 0.60 mL of octanol and 0.60 mL of buffer at room temperature. Testosterone was also added to a final concentration of 100 μM as an internal control. The solution was vortexed for 60 minutes and centrifuged at 10,000 rpm for 10 minutes. The organic and aqueous layers were removed. Serial dilutions of the organic layer were made with 50% methanol except for the initial dilution, which was made in 100% methanol. Serial dilutions of the aqueous layer were made in the pH 7.4 buffer. The diluted samples were then assayed by LC/MS for the compound as well as for testosterone. The Log of the ratio of peak area responses was calculated to obtain the Log (D). Typical Log D values for testosterone are from 3.0-3.3.

Caco-2 monolayers = experiment: Bi-directional permeability, CACO-2; assay type: in vitro ADME; details: for Absorption Potential: classification from Papp(A-to-B); for Papp B-A / Papp A-B Ratio: Caco-2 efflux ratio
Description: (§1) Caco-2 monolayers were grown to confluence on collagen-coated, microporous, polycarbonate membranes in 12-well Costar Transwell plates. Details of the plates and their certification are shown below. The permeability assay buffer was Hank's Balanced Salt Solution containing 10 mM HEPES and 15 mM glucose at a pH of 7.0±0.2. The dosing solution concentration was 10 μM in assay buffer. At each time point, 1 and 2 hours, a 200-μL aliquot was taken from the receiver chamber and replaced with fresh assay buffer. Cells were dosed on the apical side (A-to-B) or basolateral side (B-to-A) and incubated at 37° C. with 5% CO2 and 90% relative humidity. Each determination was performed in duplicate. The important experimental parameters are outlined below. Permeability through a cell-free (blank) membrane was studied to determine non-specific binding and free diffusion of the compound through the device. Lucifer yellow flux was also measured for each monolayer after being subjected to the test compounds to ensure no damage was inflicted to the cell monolayers during the flux period.
(§2) All samples were assayed by LC/MS using electrospray ionization. Typical LC/MS conditions are as follows:
(§3) dCr/dt is the cumulative concentration in the receiver compartment versus time in M s^−1.
(§4) Vr is the volume of the receiver compartment in cm^3.
(§5) Vd is the volume of the donor compartment in cm^3.
(§6) A is the area of the cell monolayer (1.13 cm^2 for 12-well Transwell).
(§7) C0 is the concentration of the dosing solution in M.
(§8) Cr^final is the cumulative receiver concentration in M at the end of the incubation period.
(§9) Cd^final is the concentration of the donor in M at the end of the incubation period.

[2] = Bi-directional permeability, CACO-2; assay type: in vitro ADME; details: for efflux ratio at 2 h, 10 μM: Caco-2, pH 7
Description: as §1, §2, §3, §4, §5, §6, §7, §8, §9

[3] = Caco-2, pH 7, Percent Recovery Blank
[4] = human, Caco-2, pH 7, Papp, A-to-B Avg
[5] = human, Caco-2, pH 7, Papp, A-to-B Rep. 1
[6] = human, Caco-2, pH 7, Papp, A-to-B Rep. 2
[7] = human, Caco-2, pH 7, Papp, B-to-A Avg
[8] = human, Caco-2, pH 7, Papp, B-to-A Rep. 1
[9] = human, Caco-2, pH 7, Papp, B-to-A Rep. 2
[10] = human, Caco-2, pH 7, Percent Recovery A-to-B
[11] = human, Caco-2, pH 7, Percent Recovery B-to-A
[12] = Caco-2, pH 7, cell-free (blank) membrane, 10 μM, read-out: Papp Blank
[13] = human, Caco-2, pH 7, Caco-2, 10 μM, replicate 2, read-out: Papp, B-to-A Rep. 2
[14] = classification from Papp(B-to-A) and ratio

CC(=O)c1ccc(C(=O)NN(C(=O)c2cc(C(=O)O)cc(C(=O)O)c2)C(C)(C)C)cc1 [RG-100150]
Log(D) Octanol/pH 7.4 [1]: −2.1 | Papp Blank (Caco-2 monolayers; Caco-2): 36.9 10^−6 cm/s | Papp, A-to-B Avg (Caco-2 monolayers; Caco-2): 0.18 10^−6 cm/s | Papp, A-to-B Rep. 1 (Caco-2 monolayers; Caco-2): 0.19 10^−6 cm/s | Papp, A-to-B Rep. 2 (Caco-2 monolayers; Caco-2): 0.18 10^−6 cm/s | Papp, B-to-A Avg (Caco-2 monolayers; Caco-2): 0.33 10^−6 cm/s | Papp, B-to-A Rep. 1 (Caco-2 monolayers; Caco-2): 0.33 10^−6 cm/s | Papp, B-to-A Rep. 2 (Caco-2 monolayers; Caco-2): 0.34 10^−6 cm/s | Significant Efflux (Caco-2 monolayers; Caco-2): No

CCc1ccc(C(=O)NN(C(=O)c2cc(C)cc(C)c2)C(C)(C)C)c(F)c1 [RG-101523, 3,5-Dimethyl-benzoic acid N-tert-butyl-N′-(4-ethyl-2-fluoro-benzoyl)-hydrazide]
Log(D) Octanol/pH 7.4 [1]: 2.9 | Papp at 2 h, 10 µM ([2]; Caco-2, pH 7, Papp Blank): 29.4 ×10⁻⁶ cm/s | recovery at 2 h, 10 μM [2, 3]: 95% | efflux ratio at 2 h, 10 μM ([2]; human): 1 | Papp A→B at 2 h, 10 µM [2, 4]: 25.4 ×10⁻⁶ cm/s | Papp A→B at 2 h, 10 µM [2, 5]: 24.2 ×10⁻⁶ cm/s | Papp A→B at 2 h, 10 µM [2, 6]: 26.6 ×10⁻⁶ cm/s | Papp B→A at 2 h, 10 µM [2, 7]: 24.5 ×10⁻⁶ cm/s | Papp B→A at 2 h, 10 µM [2, 8]: 23.6 ×10⁻⁶ cm/s | Papp B→A at 2 h, 10 µM [2, 9]: 25.4 ×10⁻⁶ cm/s | recovery at 2 h, 10 μM [2, 10]: 95% | recovery at 2 h, 10 μM [2, 11]: 88% | Significant Efflux (Caco-2 monolayers; Caco-2): No

CCc1ccc(C(=O)NN(C(=O)c2cc(C)cc(C)c2)C(C)(C)C)cc1 [RG-102125]
Log(D) Octanol/pH 7.4 [1]: 3.2 | recovery at 2 h, 10 μM [2, 3]: 62% | Papp at 2 h, 10 µM [2, 12]: 21.9 ×10⁻⁶ cm/s | Papp B→A at 2 h, 10 µM ([2]; human, Caco-2, pH 7, Caco-2, 10 μM, average of 2 replicates, read-out: Papp, B-to-A Avg): 20.2 ×10⁻⁶ cm/s | Papp A→B at 2 h, 10 µM ([2]; human, Caco-2, pH 7, Caco-2, 10 μM, replicate 1, read-out: Papp, A-to-B Rep. 1): 25.7 ×10⁻⁶ cm/s | Papp B→A at 2 h, 10 µM ([2]; human, Caco-2, pH 7, Caco-2, 10 μM, replicate 1, read-out: Papp, B-to-A Rep. 1): 20.7 ×10⁻⁶ cm/s | Papp B→A at 2 h, 10 µM [2, 13]: 19.7 ×10⁻⁶ cm/s | Papp A→B at 2 h, 10 µM [2, 4]: 26 ×10⁻⁶ cm/s | Papp A→B at 2 h, 10 µM [2, 6]: 26.3 ×10⁻⁶ cm/s | recovery at 2 h, 10 μM [2, 10]: 84% | recovery at 2 h, 10 μM [2, 11]: 63% | Absorption Potential (Caco-2 monolayers): High (Papp(A-to-B) ≧ 1.0 × 10^−6 cm/s High) | Significant Efflux (Caco-2 monolayers; [14]): No

COc1cccc(C(=O)NN(C(=O)c2cc(C)cc(C)c2)C(C)(C)C)c1C [RG-102398]
Log(D) Octanol/pH 7.4 [1]: 3.5 | recovery at 2 h, 10 μM [2, 3]: 94% | Papp at 2 h, 10 µM [2, 12]: 34.7 ×10⁻⁶ cm/s | efflux ratio at 2 h, 10 μM ([2]; human): 1 | Papp A→B at 2 h, 10 µM ([2]; human, Caco-2, pH 7, Caco-2, 10 μM, average of 2 replicates, read-out: Papp, A-to-B Avg): 26.9 ×10⁻⁶ cm/s | Papp A→B at 2 h, 10 µM ([2]; human, Caco-2, pH 7, Caco-2, 10 μM, replicate 2, read-out: Papp, A-to-B Rep. 2): 26.8 ×10⁻⁶ cm/s | Papp B→A at 2 h, 10 µM [2, 13]: 28.2 ×10⁻⁶ cm/s | Papp A→B at 2 h, 10 µM [2, 5]: 27 ×10⁻⁶ cm/s | Papp B→A at 2 h, 10 µM [2, 7]: 27.1 ×10⁻⁶ cm/s | Papp B→A at 2 h, 10 µM [2, 8]: 25.9 ×10⁻⁶ cm/s | recovery at 2 h, 10 μM [2, 10]: 85% | recovery at 2 h, 10 μM [2, 11]: 90% | Absorption Potential (Caco-2 monolayers): High (Papp(A-to-B) ≧ 1.0 × 10^−6 cm/s High) | Significant Efflux (Caco-2 monolayers; [14]): No

CCc1c(C(=O)NN(C(=O)c2ccc(F)c(C(F)(F)F)c2)C(C)(C)C)ccc2c1OCCO2 [RG-115280]
Log(D) Octanol/pH 7.4 [1]: 3.9 | Papp Blank (Caco-2 monolayers; Caco-2): 1.88 10^−6 cm/s | Papp, A-to-B Avg (Caco-2 monolayers; Caco-2): 1.27 10^−6 cm/s | Papp, A-to-B Rep. 1 (Caco-2 monolayers; Caco-2): 1.24 10^−6 cm/s | Papp, A-to-B Rep. 2 (Caco-2 monolayers; Caco-2): 1.30 10^−6 cm/s | Papp, B-to-A Avg (Caco-2 monolayers; Caco-2): 1.49 10^−6 cm/s | Papp, B-to-A Rep. 1 (Caco-2 monolayers; Caco-2): 1.50 10^−6 cm/s | Papp, B-to-A Rep. 2 (Caco-2 monolayers; Caco-2): 1.48 10^−6 cm/s | Significant Efflux (Caco-2 monolayers; Caco-2): No | Papp B-A / Papp A-B Ratio (Caco-2 monolayers): 1.2

COc1ccc(C(=O)N(NC(=O)c2ccc3c(c2C)OCCO3)C(C)(C)C)c(OC)n1 [RG-115517, 2,6-dimethoxy-nicotinic acid N-tert-butyl-N′-(5-methyl-2,3-dihydro-benzo[1,4]dioxine-6-carbonyl)-hydrazide]
Log(D) Octanol/pH 7.4 [1]: 2.9 | Papp at 2 h, 10 µM ([2]; Caco-2, pH 7, Papp Blank): 31.6 ×10⁻⁶ cm/s | recovery at 2 h, 10 μM [2, 3]: 96% | efflux ratio at 2 h, 10 μM ([2]; human): 0.9 | Papp A→B at 2 h, 10 µM [2, 4]: 28.8 ×10⁻⁶ cm/s | Papp A→B at 2 h, 10 µM [2, 5]: 28.4 ×10⁻⁶ cm/s | Papp A→B at 2 h, 10 µM [2, 6]: 29.3 ×10⁻⁶ cm/s | Papp B→A at 2 h, 10 µM [2, 7]: 26.4 ×10⁻⁶ cm/s | Papp B→A at 2 h, 10 µM [2, 8]: 25.2 ×10⁻⁶ cm/s | Papp B→A at 2 h, 10 µM [2, 9]: 27.6 ×10⁻⁶ cm/s | recovery at 2 h, 10 μM [2, 10]: 91% | recovery at 2 h, 10 μM [2, 11]: 95% | Significant Efflux (Caco-2 monolayers; Caco-2): No

COc1cnccc1C(=O)N(NC(=O)c1cccc(O)c1C)C(C)(C)C [RG-115595]
Log(D) Octanol/pH 7.4 [1]: 2.1 | Papp Blank (Caco-2 monolayers; Caco-2): 33.2 10^−6 cm/s | Papp, A-to-B Avg (Caco-2 monolayers; Caco-2): 19.2 10^−6 cm/s | Papp, A-to-B Rep. 1 (Caco-2 monolayers; Caco-2): 19.6 10^−6 cm/s | Papp, A-to-B Rep. 2 (Caco-2 monolayers; Caco-2): 18.9 10^−6 cm/s | Papp, B-to-A Avg (Caco-2 monolayers; Caco-2): 30.7 10^−6 cm/s | Papp, B-to-A Rep. 1 (Caco-2 monolayers; Caco-2): 29.8 10^−6 cm/s | Papp, B-to-A Rep. 2 (Caco-2 monolayers; Caco-2): 31.7 10^−6 cm/s | Significant Efflux (Caco-2 monolayers; Caco-2): No | Papp B-A / Papp A-B Ratio (Caco-2 monolayers): 1.6

CCCC(N(NC(=O)c1cccc(OC)c1C)C(=O)c1cc(C)cc(C)c1)C(C)(C)C (centres unmarked) [RG-115823]
Log(D) Octanol/pH 7.4 [1]: 3.3 | Papp Blank (Caco-2 monolayers; Caco-2): 24.2 10^−6 cm/s | Papp, A-to-B Avg (Caco-2 monolayers; Caco-2): 17.6 10^−6 cm/s | Papp, A-to-B Rep. 1 (Caco-2 monolayers; Caco-2): 17.4 10^−6 cm/s | Papp, A-to-B Rep. 2 (Caco-2 monolayers; Caco-2): 17.8 10^−6 cm/s | Papp, B-to-A Avg (Caco-2 monolayers; Caco-2): 17.1 10^−6 cm/s | Papp, B-to-A Rep. 1 (Caco-2 monolayers; Caco-2): 18.8 10^−6 cm/s | Papp, B-to-A Rep. 2 (Caco-2 monolayers; Caco-2): 15.4 10^−6 cm/s | Significant Efflux (Caco-2 monolayers; Caco-2): No | Papp B-A / Papp A-B Ratio (Caco-2 monolayers): 1.0
